Measured values from patent US12595251B2, “Amidines and amidine analogs for the treatment of bacterial infections and potentiation antibiotics” (GEORGIA STATE UNIVERSITY RESEARCH FOUNDATION, INC., priority 2018, dated 2026).

Assays:
B. subtilis = assay: Sensitization of B. subtilis to erythromycin (sensitization fold from IC90, OD600, 20 h); format: cell-based, Bacillus subtilis; conditions: for SF (B. subtilis): sensitization fold = IC90 of erythromycin without/with compound, compound concentration not given, T=toxic; for SF (B. subtilis) at 6 μM: compound at 6 μM; for SF (B. subtilis) at 12 μM: compound at 12 μM
Procedure: (§1) E. coli bacteria were cultured in Miller's broth at 37° C. overnight prior to treatment. B. subtilis bacteria were cultured in nutrient broth at 37° C. overnight prior to treatment. […] Bacterial density was measured based on OD600.

MRSA [1] = assay: Sensitization of MRSA to erythromycin (sensitization fold from IC90); format: cell-based, Staphylococcus aureus; conditions: for SF (MRSA) at 12 μM: compound at 12 μM
Procedure: MRSA bacteria were cultured in nutrient broth at 37° C. overnight prior to treatment. […] Bacterial density was measured based on OD600.

MRSA [2] = assay: MIC of compounds against MRSA (OD600, 48 h); format: cell-based; conditions: Staphylococcus aureus; for MIC: MIC = 90% growth inhibition, compound alone, 48 h
Procedure: Bacteria were then cultured with varying concentration of the compounds shown below for 48 hours, and then bacterial density was measured based on OD600. The minimum inhibitory concentration (MIC, 90% growth inhibition) was calculated for each compound, as shown in Table 4 (NA=no activity; --=not measured).

E. coli = assay: Sensitization of E. coli to erythromycin (sensitization fold from IC90, OD600, 20 h); format: cell-based, Escherichia coli; conditions: NA=no activity; for SF (E. coli) at 6 μM / SF (E. coli) at 12 μM / SF (E. coli) at 25 μM / SF (E. coli) at 12.5 μM: erythromycin; for SF (E. coli) at 6 μM: compound at 6 μM; for SF (E. coli) at 12 μM: compound at 12 μM; for SF (E. coli) at 25 μM: compound at 25 μM; for SF (E. coli) at 12.5 μM: compound at 12.5 μM
Procedure: as §1

SMILES: N=C(N)c1ccc(OCc2ccc(COc3ccc(C(=N)N)cc3)cc2)cc1 [drawing 728]
- SF (B. subtilis) (B. subtilis; NA=no activity): <2

SMILES: Cc1cc(COc2cccc(C(=N)N)c2)cc(COc2cccc(C(=N)N)c2)c1 [drawing 845]
- SF (MRSA) at 12.5 μM (MRSA [1]; compound at 12.5 μM): 4-fold at 12.5 μM
- MIC (MRSA [2]): 25 µM
- inhibition at 12.5 µM (MRSA [2]; compound alone at 12.5 μM, read-out: Growth inhibition of MRSA at 12.5 μM): 30%

SMILES: CC(C)(C)c1cc(COc2ccc(C(=N)N)cc2F)cc(COc2ccc(C(=N)N)cc2F)c1 [drawing 742]
- SF (E. coli) at 6 μM (E. coli): 4 fold
- SF (E. coli) at 12 μM (E. coli): 32 fold
- SF (B. subtilis) at 3 μM (B. subtilis; erythromycin, compound at 3 μM): 2 fold
- SF (B. subtilis) at 6 μM (B. subtilis; erythromycin, NA=no activity): 8 fold

SMILES: Cc1cc(COc2ccc(CN)cc2)cc(COc2ccc(CN)cc2)c1 [drawing 733]
- SF (E. coli) at 25 μM (E. coli): 4-fold at 25 μM
- SF (B. subtilis) at 12.5 μM (B. subtilis; erythromycin, compound at 12.5 μM, NA=no activity): 16-fold at 12.5 μM

SMILES: Cc1cc(COc2cccc(C(=N)N)c2)cc(COc2cccc(C(=N)N)c2)c1 [drawing 743]
- SF (E. coli) at 12 μM (E. coli): 2 fold
- SF (E. coli) at 25 μM (E. coli): 8 fold
- SF (B. subtilis) at 6 μM (B. subtilis; erythromycin, NA=no activity): 8 fold
- SF (B. subtilis) at 12 μM (B. subtilis; erythromycin, NA=no activity): 32 fold

SMILES: CCCNC(=N)c1ccc(COc2cc(C)cc(OCc3ccc(C(=N)NCCC)cc3)c2)cc1 [drawing 841]
- SF (MRSA) at 12 μM (MRSA [1]; NA=no activity): 8 fold
- SF (MRSA) at 25 μM (MRSA [1]; compound at 25 μM, NA=no activity): 8-16 fold
- inhibition at 25 µM (MRSA [2]; read-out: Growth inhibition of MRSA at 25 μM, compound alone at 25 μM, NA=no activity): 30%

SMILES: Cc1ccc(COc2ccc(C(=N)N)cc2)cc1COc1ccc(C(=N)N)cc1 [drawing 746]
- SF (E. coli) at 12.5 μM (E. coli): 4 fold
- SF (E. coli) at 25 μM (E. coli): 32 fold
- SF (B. subtilis) at 6 μM (B. subtilis; erythromycin, NA=no activity): 16 fold
- SF (B. subtilis) at 12 μM (B. subtilis; erythromycin, NA=no activity): 32 fold

SMILES: Cc1cc(OCc2ccc(C(=N)N)cc2)cc(OCc2ccc(C(=N)N)cc2)c1 [drawing 736]
- SF (E. coli) at 25 μM (E. coli): 32-fold at 25 μM
- SF (B. subtilis) at 12 μM (B. subtilis; erythromycin, NA=no activity): 32-fold at 12 μM

SMILES: COc1cc(C(=N)N)ccc1OCc1cc(COc2ccc(C(=N)N)cc2OC)cc(C(C)(C)C)c1 [drawing 843]
- MIC (MRSA [2]): 12 µM

SMILES: CC(C)NC(=N)c1ccc(OCc2cccc(COc3ccc(C(=N)NC(C)C)cc3F)c2F)c(F)c1 [drawing 840]
- SF (MRSA) at 6 μM (MRSA [1]; compound at 6 μM): 8 fold
- SF (MRSA) at 12 μM (MRSA [1]; NA=no activity): 8-16 fold
- inhibition at 12 µM (MRSA [2]; compound alone at 12 μM, NA=no activity, read-out: Growth inhibition of MRSA at 12 μM): 30%

SMILES: Cc1cc(COc2ccc(C(=N)N)cc2)nc(COc2ccc(C(=N)N)cc2)c1
- SF (E. coli) at 12.5 μM (E. coli): 8 fold
- SF (E. coli) at 25 μM (E. coli): 32 fold
- SF (E. coli) (E. coli; sensitization fold = IC90 of erythromycin without/with compound, compound concentration not given, T=toxic): 33
- SF (B. subtilis) at 6 μM (B. subtilis; erythromycin, NA=no activity): 8 fold
- SF (B. subtilis) at 12 μM (B. subtilis; erythromycin, NA=no activity): 32 fold
- SF (B. subtilis) (B. subtilis; NA=no activity): > 30

SMILES: Cc1cc(CCc2ccc(C(=N)N)cc2)cc(CCc2ccc(C(=N)N)cc2)c1 [drawing 734]
- SF (E. coli) at 12.5 μM (E. coli): 8 fold
- SF (E. coli) at 25 μM (E. coli): 32 fold
- SF (B. subtilis) at 6 μM (B. subtilis; erythromycin, NA=no activity): 32-fold at 6 μM

SMILES: Cc1cc(COc2ccc(C(=N)NC(C)C)cc2)cc(COc2ccc(C(=N)NC(C)C)cc2)c1 [drawing 835]
- SF (MRSA) at 4 μM (MRSA [1]; compound at 4 μM): 32-fold at 4 μM
- MIC (MRSA [2]): 25 µM

SMILES: COc1cc(C(=N)N)ccc1OCc1cc(COc2ccc(C(=N)N)cc2OC)cc(C(C)(C)C)c1 [drawing 741]
- SF (E. coli) at 6 μM (E. coli): 2 fold
- SF (E. coli) at 12.5 μM (E. coli): 8 fold
- SF (B. subtilis) at 6 μM (B. subtilis; erythromycin, NA=no activity): 2 fold
- SF (B. subtilis) at 12 μM (B. subtilis; erythromycin, NA=no activity): 8 fold

SMILES: Cc1cc(CCc2ccc(C(=N)N)cc2)cc(CCc2ccc(C(=N)N)cc2)c1 [drawing 838]
- SF (MRSA) at 3 μM (MRSA [1]; compound at 3 μM): 16-fold at 3 μM
- MIC (MRSA [2]): 12 µM
